According to patent US8802597B2, “Herbicidal pyrimidines” (E I du Pont de Nemours and Company, priority 2003, dated 2014):

Experiments:
Assay type in all cases: in vivo
[1] = system: chickweed (Stellaria media); assay: Test C postemergence
Summary of the method: (§1)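 Seeds sown and sprayed preemergence with test compound in non-phytotoxic solvent containing surfactant; postemergence sprays, same formulation, went onto plants 2 to 18 cm tall (1- to 4-leaf stage). Plants held in greenhouse 12 to 14 days, then visually rated against untreated controls on a 0–100 scale (0 no effect, 100 complete control).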

[2] = system: barnyardgrass (Echinochloa crus-galli); assay: Test A pre/postemergence
Summary of the method: (§2)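 Seeds sown in loam–sand blend received a preemergence directed soil spray of test chemical in non-phytotoxic solvent with surfactant; same-formulation postemergence spray given concurrently to plants 2–10 cm tall at 1- to 2-leaf stage. Greenhouse ~ten days, then visual injury rating versus untreated controls, 0 (no effect) to 100 (complete control).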

[3] = system: velvetleaf (Abutilon theophrasti); assay: Test A pre/postemergence
Summary of the method: as §2

[4] = system: crabgrass (Digitaria sanguinalis); assay: Test A pre/postemergence
Summary of the method: as §2

[5] = system: redroot pigweed (Amaranthus retroflexus); assay: Test A pre/postemergence
Summary of the method: as §2

[6] = system: morningglory (Ipomoea spp.); assay: Test A pre/postemergence
Summary of the method: as §2

[7] = system: giant foxtail (Setaria faberi); assay: Test A pre/postemergence
Summary of the method: as §2

[8] = system: cocklebur (Xanthium strumarium); assay: Test C pre/postemergence; conditions: Postemergence
Summary of the method: as §1

[9] = system: lambsquarters (Chenopodium album); assay: Test C pre/postemergence; conditions: Postemergence
Summary of the method: as §1

corn (Zea mays) = assay: Test C pre/postemergence; conditions: Postemergence
Summary of the method: as §1

[10] = system: common ragweed (Ambrosia elatior); assay: Test C pre/postemergence; conditions: Postemergence
Summary of the method: as §1

[11] = 125 g ai/ha, scale 0 to 100 (0 no effect, 100 complete control)
[12] = Postemergence, 125 g ai/ha, 0 to 100 scale (0 no effect, 100 complete control)
[13] = Postemergence, 500 g ai/ha, 0 to 100 scale (0 no effect, 100 complete control)
[14] = Preemergence, 125 g ai/ha, 0 to 100 scale where 0 is no effect and 100 is complete control, approximately ten days
[15] = Preemergence, 500 g ai/ha, 0 to 100 scale where 0 is no effect and 100 is complete control, approximately ten days

Nc1nc(-c2ccc(Cl)cc2)nc(C(=O)O)c1Br [Compound 88]
Plant response rating (scale of 0 to 100), Chickweed ([1]; 31 g ai/ha): 80
Plant response rating (scale of 0 to 100), Chickweed ([1]; 62 g ai/ha): 100
Chickweed plant response rating [1, 11]: 100
Plant response rating, Chickweed ([1]; 250 g ai/ha, scale 0 to 100): 100
Plant response rating, Barnyardgrass [2, 12]: 50
Plant response rating, Barnyardgrass [2, 13]: 85
Plant response rating, Barnyardgrass [2, 14]: 10
Plant response rating, Barnyardgrass [2, 15]: 55
Plant response rating, Velvetleaf [3, 12]: 90
Plant response rating, Velvetleaf [3, 13]: 95
Plant response rating, Velvetleaf [3, 14]: 10
Plant response rating, Velvetleaf [3, 15]: 70
Plant response rating, Crabgrass [4, 12]: 60
Plant response rating, Crabgrass [4, 13]: 85
Plant response rating, Crabgrass [4, 14]: 35
Plant response rating, Crabgrass [4, 15]: 85
Plant response rating, Pigweed [5, 12]: 90
Plant response rating, Pigweed [5, 13]: 95
Plant response rating, Pigweed [5, 14]: 80
Plant response rating, Pigweed [5, 15]: 100
Plant response rating, Morningglory [6, 12]: 60
Plant response rating, Morningglory [6, 13]: 85
Plant response rating, Morningglory [6, 14]: 10
Plant response rating, Morningglory [6, 15]: 90
Plant response rating, Foxtail, Giant [7, 12]: 80
Plant response rating, Foxtail, Giant [7, 13]: 90
Plant response rating, Foxtail, Giant [7, 14]: 10
Plant response rating, Foxtail, Giant [7, 15]: 50
Plant response rating (scale of 0 to 100), Cocklebur ([8]; 31 g ai/ha): 90
Plant response rating (scale of 0 to 100), Cocklebur ([8]; 62 g ai/ha): 90
Cocklebur plant response rating [8, 11]: 90
Plant response rating, Cocklebur ([8]; 250 g ai/ha, scale 0 to 100): 90
Plant response rating (scale of 0 to 100), Lambsquarters ([9]; 31 g ai/ha): 90
Plant response rating (scale of 0 to 100), Lambsquarters ([9]; 62 g ai/ha): 95
Lambsquarters plant response rating [9, 11]: 95
Plant response rating, Lambsquarters ([9]; 250 g ai/ha, scale 0 to 100): 100
Plant response rating (scale of 0 to 100), Corn (corn (Zea mays); 31 g ai/ha): 0
Plant response rating (scale of 0 to 100), Corn (corn (Zea mays); 62 g ai/ha): 0
Plant response rating, Corn (corn (Zea mays); 250 g ai/ha, scale 0 to 100): 30
Plant response rating (scale of 0 to 100), Ragweed ([10]; 31 g ai/ha): 90
Plant response rating (scale of 0 to 100), Ragweed ([10]; 62 g ai/ha): 100
Ragweed plant response rating [10, 11]: 100
Plant response rating, Ragweed ([10]; 250 g ai/ha, scale 0 to 100): 100
